From paper PMC7159426 (American Journal of Respiratory and Critical Care Medicine, 2020)

How the values were obtained:
sheep TMEM16A = target: T1, sheep TMEM16A (Ovis aries, UniProt A0ACI6NM12); assay: whole-cell patch clamp; type: cell-based
T1 sequence (A0ACI6NM12 1-1040): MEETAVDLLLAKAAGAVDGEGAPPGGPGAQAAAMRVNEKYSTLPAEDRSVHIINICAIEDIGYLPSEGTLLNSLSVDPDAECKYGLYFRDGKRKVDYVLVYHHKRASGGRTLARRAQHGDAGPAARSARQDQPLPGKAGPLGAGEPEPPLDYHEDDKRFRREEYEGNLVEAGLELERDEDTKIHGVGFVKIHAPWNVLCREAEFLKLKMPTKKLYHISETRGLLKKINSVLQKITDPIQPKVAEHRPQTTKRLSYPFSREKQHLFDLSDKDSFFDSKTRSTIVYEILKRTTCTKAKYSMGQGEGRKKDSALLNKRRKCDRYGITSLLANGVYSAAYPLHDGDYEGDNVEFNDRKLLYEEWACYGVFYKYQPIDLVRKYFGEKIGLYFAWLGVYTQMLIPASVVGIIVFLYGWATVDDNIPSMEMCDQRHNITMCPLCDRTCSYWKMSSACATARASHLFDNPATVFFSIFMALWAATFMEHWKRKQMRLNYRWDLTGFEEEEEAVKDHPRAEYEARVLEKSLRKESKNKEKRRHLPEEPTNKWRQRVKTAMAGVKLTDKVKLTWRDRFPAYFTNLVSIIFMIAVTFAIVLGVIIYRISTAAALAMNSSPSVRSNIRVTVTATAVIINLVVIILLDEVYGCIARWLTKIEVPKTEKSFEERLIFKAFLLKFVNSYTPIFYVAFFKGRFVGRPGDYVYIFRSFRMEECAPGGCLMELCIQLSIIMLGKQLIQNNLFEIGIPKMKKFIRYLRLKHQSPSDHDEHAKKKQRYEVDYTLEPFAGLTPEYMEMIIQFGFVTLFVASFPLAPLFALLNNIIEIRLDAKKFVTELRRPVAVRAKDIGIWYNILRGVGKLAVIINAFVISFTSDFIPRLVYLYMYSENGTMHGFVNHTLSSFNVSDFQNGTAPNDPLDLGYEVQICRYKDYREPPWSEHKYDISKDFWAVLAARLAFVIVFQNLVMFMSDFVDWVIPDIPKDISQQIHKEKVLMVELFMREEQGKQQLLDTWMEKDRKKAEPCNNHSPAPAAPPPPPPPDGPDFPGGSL

TMEM16A (anoctamin-1) = target: T2, TMEM16A (anoctamin-1) (Homo sapiens, UniProt Q5XXA6); assay: whole-cell patch clamp; type: cell-based
T2 sequence (Q5XXA6 1-986): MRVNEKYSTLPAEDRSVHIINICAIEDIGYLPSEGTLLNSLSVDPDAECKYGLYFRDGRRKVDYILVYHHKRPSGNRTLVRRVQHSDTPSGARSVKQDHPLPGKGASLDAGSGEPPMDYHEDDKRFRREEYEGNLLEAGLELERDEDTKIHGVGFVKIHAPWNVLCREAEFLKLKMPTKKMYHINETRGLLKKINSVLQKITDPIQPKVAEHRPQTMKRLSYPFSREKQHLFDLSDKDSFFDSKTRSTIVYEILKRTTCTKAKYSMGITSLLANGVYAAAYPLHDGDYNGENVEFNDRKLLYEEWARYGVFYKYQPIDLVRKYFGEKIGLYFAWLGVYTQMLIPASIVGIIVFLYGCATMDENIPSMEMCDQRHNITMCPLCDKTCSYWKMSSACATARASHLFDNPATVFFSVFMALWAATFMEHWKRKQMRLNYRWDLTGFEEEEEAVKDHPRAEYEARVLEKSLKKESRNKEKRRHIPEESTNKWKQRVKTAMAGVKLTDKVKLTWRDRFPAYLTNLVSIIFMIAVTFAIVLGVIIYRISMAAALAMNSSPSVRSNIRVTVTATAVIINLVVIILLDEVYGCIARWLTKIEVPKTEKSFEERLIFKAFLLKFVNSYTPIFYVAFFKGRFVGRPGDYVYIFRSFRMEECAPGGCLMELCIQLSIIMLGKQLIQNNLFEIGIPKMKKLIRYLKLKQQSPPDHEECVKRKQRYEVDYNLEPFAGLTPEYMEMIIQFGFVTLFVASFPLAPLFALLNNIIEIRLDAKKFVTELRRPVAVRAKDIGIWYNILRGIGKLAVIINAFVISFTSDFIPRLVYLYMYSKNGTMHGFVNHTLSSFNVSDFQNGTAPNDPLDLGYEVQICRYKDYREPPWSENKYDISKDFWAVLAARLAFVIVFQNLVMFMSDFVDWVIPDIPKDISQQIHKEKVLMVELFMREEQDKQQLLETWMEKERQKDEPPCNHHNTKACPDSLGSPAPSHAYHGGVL

EC50 (sheep TMEM16A): 127 ± 21 nM
EC50 (TMEM16A (anoctamin-1)): 116 ± 16 nM
Substance: ETX001
